Laboratory results published in the OligoGym collection.
These antisense oligonucleotides have a phosphorothioate backbone; sugars and methylation of C are not fully specified.

The sequences below were run against FADD. Conditions: ASO.
Note: test concentration or dose not given here.

Sequence | remaining target (mRNA or protein) (fraction of control)
GCTCGCTGCTCGACAGGC | 0.74
GCTGGGCTACCTTCCTGG | ≥ 1
GGACCACGGCCAACCAGG | 0.58
GGCCCCACTCCTGTTCTG | 0.52
GGTTCCAACTTTCCAACT | 0.97
GTCTGAGACTTTGAGCTG | ≥ 1
GTTGCGTTCTCCTTCTCT | 0.76
TACCAGGTCAGCCACCAG | 0.91
TCATAGTGAGGAAGAAAT | ≥ 1
TCATCAGCACCTCACAGA | 0.74
TGGAGTAACAGTGTGACT | 0.64
TTTGATACAAAACAGTAA | 0.42

These sequences were tested against PTEN. Conditions: ASO.

Sequence | remaining target (mRNA or protein) (fraction of control)
AATTATTTCCTTTCTGAG | 0.86
ACATAGCGCCTCTGACTG | 0.28
ACTGGAATAAAACGGGAA | 0.85
ACTTCAGTTGGTGACAGA | 0.31
ATGGTGACAGGCGACTCA | 0.25
ATTACACCAGTTCGTCCC | 0.41
ATTGTTGCTGTGTTTCTT | 0.36
ATTTCTTGATCACATAGA | ≥ 1
CAAGATCTTCACAAAAGG | ≥ 1
CAGATTAATAACTGTAGC | 0.91
CAGGAGAAGCCGAGGAAG | 0.49
CCCCAATACAGATTCACT | 0.48
CCCGCGGCTGCTCACAGG | 0.19
CCGGGTCCCTGGATGTGC | 0.24
CCTCCGAACGGCTGCCTC | 0.4
CGAGAGGCGGACGGGACC | ≥ 1
CGCTTGGCTCTGGACCGC | 0.16
CGGGCGCCTCGGAAGACC | 0.38
GAATATATCTTCACCTTT | 0.58
GGAAGAACTCTACTTTGA | 0.62

Sequence | remaining target (mRNA or protein) (fraction of control)
GGATAAATATAGGTCAAG | ≥ 1
GGGAGGTGCCGCCGCCGC | 0.58
GGTTGGCTTTGTCTTTAT | 0.23
GTGTCAAAACCCTGTGGA | 0.28
TAAATAGCTGGAGATGGT | 0.45
TAGCAAAACCTTTCGGAA | 0.49
TATTTTCATGGTGTTTTA | 0.24
TCAATATTGTTCCTGTAT | ≥ 1
TCTCCTCAGCAGCCAGAG | 0.66
TCTGGATCAGAGTCAGTG | 0.56
TCTTCTGCAGGATGGAAA | ≥ 1
TGAAGAATGTATTTACCC | 0.56
TGCTAACGATCTCTTTGA | 0.57
TGCTAGCCTCTGGATTTG | 0.26
TGGCTGCAGCTTCCGAGA | 0.27
TGTCTCTGGTCCTTACTT | 0.66
TGTGAAACAACAGTGCCA | 0.25
TGTTCCTATAACTGGTAA | 0.42
TGTTTCAAGCCCATTCTT | 0.35
TTAAATTTGGCGGTGTCA | ≥ 1

These sequences were tested against BIRC2. Conditions: ASO.

Sequence | remaining target (mRNA or protein) (fraction of control)
AAAAGCTAAGTTCACACA | ≥ 1
AAATTACACTCCATAGAA | ≥ 1
AAGCACTTTAACATGACA | 0.85
AAGTCAATACCCACAAGC | ≥ 1
AATCAACTCTACTAGCCT | 0.53
ACCTGGGAAAAGTCTTTG | ≥ 1
ACTTTCTTCCTAACTTTG | ≥ 1
AGGTGGATGCACTTCTGA | ≥ 1
AGTGAAAAGCACCAAAGA | ≥ 1

Each sequence was assayed against RIPK1. Conditions: ASO.

Sequence | remaining target (mRNA or protein) (fraction of control)
AAAAGGGTCATGGGAGAC | ≥ 1
ACATCTGGCCTGTTCCCA | 0.56
ACTGGGATATTATGCAGA | 0.98
AGTCTGTTCATCATCTTC | 0.96
ATAAAGATGGTAGTTGGC | ≥ 1
ATCTGGTAAACCTTTTCT | 0.99
ATCTTAATGACATTCAAG | ≥ 1
ATTCGCTTCCCAGCAGAG | 0.7
ATTCTCTTCTTGTGGGTG | ≥ 1
ATTTTATAGATTCATCTG | ≥ 1
CAAGTTGAAGAGACTGCA | ≥ 1
CAATGATTTCCCAAATTA | ≥ 1
CAGTGCTTTCCCAGATTT | 0.94
CATGGTCAATTTCATCAA | ≥ 1
CCACTTCCCTCAGCTCAT | ≥ 1
CCATATAATTGTAGGCTC | ≥ 1
CCATGTAGTAGAGGGTGC | ≥ 1
CCCTATCAGTGAGGACAG | ≥ 1
CCCTGGGTTCTGTGGAAA | 0.7
CTCTATGATGACGCCCAG | 0.69

Sequence | remaining target (mRNA or protein) (fraction of control)
CTGTGGCTGAATTTGACC | ≥ 1
GAAGTTTGAGACCAGCCT | ≥ 1
GACCCATCCCAAGTCCCT | ≥ 1
GCCACATTCTGTCTGGGC | 0.72
GGATCCAGTGGTCTTGTT | 0.84
GGCATGGTGGGTGTATTT | ≥ 1
GGTTAGTTCTGGCTGACG | ≥ 1
GTGCATCAGGTTGCCCTT | ≥ 1
GTGCCTTTTCCCTCTGTA | 0.84
TATCAAAGATAGCTTGGT | ≥ 1
TATGGCTCCTTATTTGCA | 0.78
TCCCAGCACTTTGGAAGG | ≥ 1
TGAGGTTGGCTGGTGAGC | 0.83
TGCTCCACATCTTAAAGG | 0.75
TGGAAGTCATTATCAACA | ≥ 1
TGTCCAGTTCTGCACTCT | 0.81
TTAAACTCTTCACGTCCT | 0.85
TTGTGCTGTCTAGTAGTG | ≥ 1
TTGTGTATCACGCCTTTT | ≥ 1
TTTCCCCATTCTCCAGCT | 0.85
